# “And” between values parts separate entries of the source, which are not always exact repeats. Equal values may be shown once.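 Test compounds were applied to cells in 96-well plates for 48 hours at 5 doses. Abbreviation: GI50, concentration required for 50% inhibition of growth. At the TGI there is no net growth.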
# Tests used:
# Assay in all cases: growth of human tumour cells (NCI), 48 h
# [1] = system: 786-0 renal
# [2] = system: CCRF-CEM leukemia
# [3] = system: EKVX NSCLC
# [4] = system: IGROV1 ovarian
# [5] = system: NCI/ADR-RES ovarian
# [6] = system: OVCAR-5 ovarian
# [7] = system: SF-539 CNS
# [8] = system: SK-OV-3 ovarian
# [9] = system: SNB-19 CNS
# [10] = system: T-47D breast
Structure (SMILES),GI50 [1],TGI [1],GI50 [2],TGI [2],GI50 [3],TGI [3],GI50 [4],TGI [4],GI50 [5],TGI [5],GI50 [6],TGI [6],GI50 [7],TGI [7],GI50 [8],TGI [8],TGI [9],GI50 [10],TGI [10],GI50 [9]
COc1ccc(/C=C\c2cc(OC)c(OC)c(OC)c2)cc1OC(=O)c1cccc(Cn2cc(CCOC(=O)c3cccc(Cn4nnc5c4C(=O)c4ccccc4C5=O)c3)nn2)c1,0.101 µM,17.5 µM,< 0.01 µM,> 100 µM,0.062 µM,> 100 µM,0.0252 µM,26.4 µM,< 0.01 µM,0.421 µM,0.0542 µM,> 100 µM,< 0.01 µM,0.134 µM,2.73 µM,46.7 µM,30.6 µM,51.6 µM,> 100 µM,
NC(=O)C(NC=O)c1ccccc1 (centres undefined),,> 100 µM,,> 100 µM,,> 100 µM,,> 100 µM,,> 100 µM,,,,> 100 µM,,> 100 µM,> 100 µM,,> 100 µM,
C=C(C)[C@@H]1CCC2=C[C@@H](OC2=O)[C@@H](C(=C)C)C(=O)/C=C(/C)C(=O)C1,35.5 µM,> 100 µM,4.78 µM,28.8 µM,52.4 µM,> 100 µM,40.9 µM,> 100 µM,37 µM,> 100 µM,70.6 µM,> 100 µM,36.5 µM,95.4 µM,,,> 100 µM,51.1 µM,> 100 µM,33.8 µM
CCOC(=O)C1=C(C)NC2SC(=O)/C(=C\c3ccccc3)N2C1c1ccccc1 (centres undefined),> 100 µM,> 100 µM,14.8 µM,> 100 µM,> 100 µM,> 100 µM,> 100 µM,> 100 µM,> 100 µM,> 100 µM,> 100 µM,> 100 µM,> 100 µM,> 100 µM,> 100 µM,> 100 µM,> 100 µM,38.2 µM,> 100 µM,> 100 µM
COc1cc([C@@H]2c3cc4c(cc3[C@H](O)[C@H]3COC(=O)[C@H]23)OCO4)cc(OC)c1OC,< 0.005 µM,1.08 µM and 0.5 µM and < 0.215 µM,< 0.01 µM,,,> 100 µM and 50 µM,< 0.005 µM,,,< 0.005 µM,,> 100 µM and 46.3 µM,< 0.01 µM,< 0.005 µM,< 0.01 µM,,> 100 µM and 50 µM,> 84.5 µM,> 100 µM and 34.1 µM,< 0.01 µM
CCOC(=O)C(=O)N=Nc1nc2c(O)c3ccccc3c(O)c2s1,,22.8 µM,,> 100 µM,,19.4 µM,,14.6 µM,,4.89 µM,,16.1 µM,,5.13 µM,,34.4 µM,28.9 µM,,35.8 µM,
COc1cccc(C2C3=C(COC3=O)N(CCO)c3cc4c(cc32)OCCO4)c1 (centres undefined),0.198 µM,> 50 µM,0.151 µM,> 50 µM,0.265 µM,> 50 µM,0.0959 µM,0.906 µM,0.137 µM,0.727 µM,0.427 µM,> 50 µM,0.124 µM,,0.128 µM,4.28 µM,> 15.8 µM,0.239 µM,> 50 µM,
CC[CH2][Sn]([Cl])([Cl])[CH2]CC,10.8 µM,23 µM,1.24 µM,> 100 µM,12.3 µM,26.4 µM,,,15.8 µM,30.7 µM,16.6 µM,31 µM,11.1 µM,25 µM,25.7 µM,70.8 µM,25.9 µM,1.17 µM,3.36 µM,13.2 µM
OC(COc1cccc2ccccc12)CN1CCN(c2ccccc2)CC1 (centres undefined),17.4 µM,32.2 µM,17.9 µM,53.2 µM,15.4 µM,32.3 µM,14.6 µM,29.5 µM,15.4 µM,30.4 µM,16.4 µM,30.8 µM,18.1 µM,33.9 µM,17 µM,32.4 µM,30.7 µM,17.3 µM,34.7 µM,15.8 µM
N#Cc1c(-c2ccccc2)cc(-c2ccccc2)n(CCCCC(=O)NO)c1=O,2.83 µM,9.13 µM,1.68 µM,6.45 µM,2.82 µM,11.7 µM,2.48 µM,9.34 µM,0.703 µM,3.18 µM,2.6 µM,10.9 µM,2.51 µM,10.4 µM,2.06 µM,5 µM,15.6 µM,1.93 µM,7.99 µM,3.53 µM
COC(=O)c1ccc([N+](=O)[O-])c(O)c1,,> 100 µM,,> 100 µM,,> 100 µM,,> 100 µM,,> 100 µM,,> 100 µM,,> 100 µM,,> 100 µM,> 100 µM,,> 100 µM,
CN(C)CCCNc1nccc(-c2c(-c3ccc(F)cc3)nn3cc(C(F)(F)F)ccc23)n1,7.69 µM,> 25 µM,8.08 µM,> 25 µM,18.8 µM,> 25 µM,10.2 µM,> 25 µM,8.48 µM,> 25 µM,11.2 µM,> 25 µM,15.5 µM,> 25 µM,20.1 µM,> 25 µM,> 25 µM,12.5 µM,> 25 µM,> 19.6 µM
CNC(C)C(=O)N[C@H](C(=O)N1CCC[C@@H]1CN(CCc1ccccc1)C(=O)C(F)(F)F)[C@H](C)OCC#CC#CCO[C@H](C)[C@H](NC(=O)[C@H](C)NC)C(=O)N1CCC[C@H]1CN(CCc1ccccc1)C(=O)C(F)(F)F (some centres undefined),1.65 µM,3.25 µM,0.602 µM,2.54 µM,1.63 µM,3.34 µM,2.13 µM,4.38 µM,8.19 µM,27.3 µM,1.88 µM,3.68 µM,< 0.01 µM,0.199 µM,< 0.01 µM,< 0.01 µM,3.43 µM,1.64 µM,3.3 µM,1.81 µM
C#COc1cccc(Nc2ncnc3ncc(NC(=O)CCl)cc23)c1,2.71 µM,> 62.5 µM,,> 62.5 µM,> 62.5 µM,> 62.5 µM,,> 26.1 µM,> 24.7 µM,> 62.5 µM,> 47.4 µM,> 62.5 µM,> 21.8 µM,> 53.2 µM,> 62.5 µM,> 62.5 µM,> 62.5 µM,> 62.5 µM,> 62.5 µM,> 43.3 µM

# — PubChem BioAssay (NCI)
